Test results as given in the NIST ThermoML archive (doi:10.1016/j.fluid.2019.05.001).
Numbers after ± are expanded uncertainties.

Settings: Crystal; DTA

In the case of `CCOC(=O)CCC[N+]1(C)CCCC1.[Br-]` [1-(4-ethoxy-4-oxobutyl)-1-methylpyrrolidinium bromide], the Normal melting temperature is reported as 73.00 ± 1 °C.
